Measured values from patent US10750743B2, “Pyridazinone herbicides” (E.I. DU PONT DE NEMOURS AND COMPANY, priority 2015, dated 2020).

Experiments:
Type in all cases: in vivo
[1] = system: ragweed (common ragweed, Ambrosia elatior); assay: Test A postemergence application, visual injury rating; conditions: 0 to 100 scale, 0 no effect, 100 complete control
Procedure, shortened: (§1)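 Seeds sown in a loam soil–sand blend received a directed preemergence soil spray of test chemical in a non-phytotoxic solvent mixture with surfactant. Postemergence plants were sprayed at 2 to 10 cm, one- to two-leaf stage. After approximately 10 d in greenhouse, injury was visually rated 0 (no effect) to 100 (complete control) against untreated controls.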

[2] = system: ryegrass, It. (Italian ryegrass, Lolium multiflorum); assay: as above; conditions: 0 to 100 scale, 0 no effect, 100 complete control
Procedure, shortened: as §1

corn (Zea mays) = assay: as above; conditions: 0 to 100 scale, 0 no effect, 100 complete control
Procedure, shortened: as §1

[3] = system: blackgrass (Alopecurus myosuroides); assay: as above; conditions: 0 to 100 scale, 0 no effect, 100 complete control
Procedure, shortened: as §1

[4] = system: pigweed (Amaranthus retroflexus); assay: as above; conditions: 0 to 100 scale, 0 no effect, 100 complete control
Procedure, shortened: as §1

[5] = system: wheat (Triticum aestivum); assay: as above; conditions: 0 to 100 scale, 0 no effect, 100 complete control
Procedure, shortened: as §1

[6] = system: barnyardgrass (Echinochloa crus-galli); assay: as above; conditions: 0 to 100 scale, 0 no effect, 100 complete control
Procedure, shortened: as §1

Foxtail, Green [7] = assay: as above; conditions: 0 to 100 scale, 0 no effect, 100 complete control
kochia (Kochia scoparia) [8] = assay: as above; conditions: 0 to 100 scale, 0 no effect, 100 complete control
Procedure, shortened: as §1

[9] = system: galium (catchweed bedstraw, Galium aparine); assay: as above; conditions: 0 to 100 scale, 0 no effect, 100 complete control
Procedure, shortened: as §1

[10] = system: ragweed (common ragweed, Ambrosia elatior); assay: Test A preemergence, directed soil spray, visual injury rating; conditions: 0 is no effect, 100 is complete control
Procedure, shortened: as §1

[11] = system: ryegrass, It. (Italian ryegrass, Lolium multiflorum); assay: as above; conditions: 0 is no effect, 100 is complete control
Procedure, shortened: as §1

[12] = system: pigweed (Amaranthus retroflexus); assay: as above; conditions: 0 is no effect, 100 is complete control
Procedure, shortened: as §1

[13] = system: barnyardgrass (Echinochloa crus-galli); assay: as above; conditions: 0 is no effect, 100 is complete control
Procedure, shortened: as §1

Foxtail, Green [14] = assay: as above; conditions: 0 is no effect, 100 is complete control
kochia (Kochia scoparia) [15] = assay: as above; conditions: 0 is no effect, 100 is complete control
Procedure, shortened: as §1

[16] = system: sedge, umbrella (small-flower umbrella sedge, Cyperus difformis); assay: Test B flooded paddy test, visual rating; conditions: Flood, 250 g ai/ha, applied to paddy water, rated after 13 to 15 d
Procedure, shortened: (§2)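 Plants at the 2-leaf stage were flooded to 3 cm above soil, and test compounds were applied directly into the paddy water, which was held at that depth throughout. After 13 to 15 d in a greenhouse, injury was rated visually against untreated controls on a 0–100 scale (0 no effect, 100 complete control).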

[17] = system: ducksalad (Heteranthera limosa); assay: Test B flooded paddy test, visual rating; conditions: Flood, 250 g ai/ha, applied to paddy water, rated after 13 to 15 d
Procedure, shortened: as §2

[18] = system: barnyardgrass (Echinochloa crus-galli); assay: Test B flooded paddy test, visual rating; conditions: Flood, 250 g ai/ha, applied to paddy water, rated after 13 to 15 d
Procedure, shortened: as §2

rice (Oryza sativa) = assay: Test B flooded paddy test, visual rating; conditions: Flood, 250 g ai/ha, applied to paddy water, rated after 13 to 15 d
Procedure, shortened: as §2

Cn1ncc(O)c(-c2cccc3cnccc23)c1=O [Compound 34]
Ragweed plant response rating ([1]; 31 g ai/ha): 0 | Ragweed plant response rating ([1]; 125 g ai/ha): 0 | Ryegrass, It. plant response rating ([2]; 31 g ai/ha): 0 | Ryegrass, It. plant response rating ([2]; 125 g ai/ha): 0 | Corn plant response rating (corn (Zea mays); 31 g ai/ha): 0 | Corn plant response rating (corn (Zea mays); 125 g ai/ha): 0 | Blackgrass plant response rating ([3]; 31 g ai/ha): 0 | Blackgrass plant response rating ([3]; 125 g ai/ha): 0 | Pigweed plant response rating ([4]; 31 g ai/ha): 0 | Pigweed plant response rating ([4]; 125 g ai/ha): 0 | Wheat plant response rating ([5]; 31 g ai/ha): 0 | Wheat plant response rating ([5]; 125 g ai/ha): 0 | Barnyardgrass plant response rating ([6]; 31 g ai/ha): 0 | Barnyardgrass plant response rating ([6]; 125 g ai/ha): 0 | Foxtail, Green plant response rating (Foxtail, Green [7]; 31 g ai/ha): 0 | Foxtail, Green plant response rating (Foxtail, Green [7]; 125 g ai/ha): 0 | Kochia plant response rating (kochia (Kochia scoparia) [8]; 31 g ai/ha): 0 | Kochia plant response rating (kochia (Kochia scoparia) [8]; 125 g ai/ha): 0 | Galium plant response rating ([9]; 31 g ai/ha): 0 | Galium plant response rating ([9]; 125 g ai/ha): 0 | Plant response rating (0 to 100 scale), Ragweed ([10]; 31 g ai/ha): 0 | Plant response rating (0 to 100 scale), Ragweed ([10]; 125 g ai/ha): 0 | Plant response rating (0 to 100 scale), Ryegrass, It. ([11]; 31 g ai/ha): 0 | Plant response rating (0 to 100 scale), Ryegrass, It. ([11]; 125 g ai/ha): 0 | Plant response rating (0 to 100 scale), Pigweed ([12]; 31 g ai/ha): 0 | Plant response rating (0 to 100 scale), Pigweed ([12]; 125 g ai/ha): 0 | Plant response rating (0 to 100 scale), Barnyardgrass ([13]; 31 g ai/ha): 0 | Plant response rating (0 to 100 scale), Barnyardgrass ([13]; 125 g ai/ha): 0 | Plant response rating (0 to 100 scale), Foxtail, Green (Foxtail, Green [14]; 31 g ai/ha): 0 | Plant response rating (0 to 100 scale), Foxtail, Green (Foxtail, Green [14]; 125 g ai/ha): 0 | Plant response rating (0 to 100 scale), Kochia (kochia (Kochia scoparia) [15]; 31 g ai/ha): 0 | Plant response rating (0 to 100 scale), Kochia (kochia (Kochia scoparia) [15]; 125 g ai/ha): 0 | Sedge, Umbrella plant response rating (0 to 100 scale, 0 is no effect, 100 is complete control) [16]: 0 | Ducksalad plant response rating (0 to 100 scale, 0 is no effect, 100 is complete control) [17]: 0 | Barnyardgrass plant response rating (0 to 100 scale, 0 is no effect, 100 is complete control) [18]: 0 | Rice plant response rating (0 to 100 scale, 0 is no effect, 100 is complete control) (rice (Oryza sativa)): 0

Cc1nn(C)c(=O)c(-c2ccc(Cl)c3ccsc23)c1OC(=O)c1ccccc1 [Compound 35]
Ragweed plant response rating ([1]; 1000 g ai/ha): 0 | Ryegrass, It. plant response rating ([2]; 1000 g ai/ha): 70 | Corn plant response rating (corn (Zea mays); 1000 g ai/ha): 0 | Blackgrass plant response rating ([3]; 1000 g ai/ha): 30 | Pigweed plant response rating ([4]; 1000 g ai/ha): 0 | Wheat plant response rating ([5]; 1000 g ai/ha): 0 | Barnyardgrass plant response rating ([6]; 1000 g ai/ha): 20 | Foxtail, Green plant response rating (Foxtail, Green [7]; 1000 g ai/ha): 0 | Kochia plant response rating (kochia (Kochia scoparia) [8]; 1000 g ai/ha): 0 | Galium plant response rating ([9]; 1000 g ai/ha): 100 | Plant response rating (0 to 100 scale), Ragweed ([10]; 1000 g ai/ha): 10 | Plant response rating (0 to 100 scale), Ryegrass, It. ([11]; 1000 g ai/ha): 80 | Plant response rating (0 to 100 scale), Pigweed ([12]; 1000 g ai/ha): 0 | Plant response rating (0 to 100 scale), Barnyardgrass ([13]; 1000 g ai/ha): 20 | Plant response rating (0 to 100 scale), Foxtail, Green (Foxtail, Green [14]; 1000 g ai/ha): 0 | Plant response rating (0 to 100 scale), Kochia (kochia (Kochia scoparia) [15]; 1000 g ai/ha): 0
